Laboratory results as given in patent publication US12295936B2, “Immunomodulating urea azalides” (Zoetis Services LLC, priority 2020, dated 2025).
Read-outs that look alike come from different tables or passages of the source.

Tests used:
TNF-α = experiment: LPS-stimulated whole bovine blood assay, MSD cytokine detection; assay type: cell-based; details: Bos taurus, read-out: TNF-α (IC50 μM)
IL-1β = experiment: as above; assay type: cell-based; details: overstimulation of IL-1β, LPS-stimulated bovine whole blood
IL-6 = experiment: as above; assay type: cell-based; details: Bos taurus, read-out: IL-6 (IC50 μM)
Text: In order to correlate RNA sequencing data to cytokine changes the whole blood assay was utilized. […] The enhancement result represents an overall stimulation of cytokine levels due to cellular stress or potential toxicity with increasing concentrations of the compound, representing a typical bell shape response curve for immunomodulatory activity.

[1] = test system: BRD pathogens, M. haemolytica and P. multocida; experiment: MIC screening panel of BRD pathogens (antibacterial / non-antibacterial); details: read-out: antibacterial / non-antibacterial (MIC for the BRD pathogens)
[2] = LPS-stimulated bovine whole blood

Structure (SMILES) | IC50 (TNF-α; [2]) [µM] | IC50 (IL-6; [2]) [µM] | IL-1β OS of LPS (IL-1β) [µM] | MIC [1] [µg/mL] | IC50 (TNF-α) [µM] | IC50 (IL-6) [µM]
CC[C@H]1OC(=O)[C@H](C)[C@@H](O)[C@H](C)[C@@H](O[C@@H]2O[C@H](C)C[C@H](N(C)C(=O)Nc3ccc(OC)cc3)[C@H]2O)[C@](C)(O)C[C@@H](C)CN[C@H](C)[C@@H](O)[C@]1(C)O [Example A-22, 1-((2S,3R,4S,6R)-2-(((2R,3S,4R,5R,8R,10R,11R,12S,13S,14R)-2-ethyl-3,4,10,13-tetrahydroxy-3,5,8,10,12,14-hexamethyl-15-oxo-1-oxa-6-azacyclopentadecan-11-yl)oxy)-3-hydroxy-6-methyltetrahydro-2H-pyran-4-yl)-3-(4-methoxyphenyl)-1-methylurea] | > 250 | 246 | 100 | > 64 | – | –
CC[C@H]1OC(=O)[C@H](C)[C@@H](O[C@H]2C[C@@](C)(OC)[C@@H](O)[C@H](C)O2)[C@H](C)[C@@H](O[C@@H]2O[C@H](C)C[C@H](N(C)C(=O)Nc3ccc(F)cc3)[C@H]2O)[C@](C)(O)C[C@@H](C)CN(C)[C@H](C)[C@@H](O)[C@]1(C)O [Example B-9, 1-((2S,3R,4S,6R)-2-(((2R,3S,4R,5R,8R,10R,11R,12S,13S,14R)-2-ethyl-3,4,10-trihydroxy-13-(((2R,4R,5S,6S)-5-hydroxy-4-methoxy-4,6-dimethyltetrahydro-2H-pyran-2-yl)oxy)-3,5,6,8,10,12,14-heptamethyl-15-oxo-1-oxa-6-azacyclopentadecan-11-yl)oxy)-3-hydroxy-6-methyltetrahydro-2H-pyran-4-yl)-3-(4-fluorophenyl)-1-methylurea] | 107 | 116 | 28 | > 64 | – | –
CC[C@H]1OC(=O)[C@H](C)[C@@H](O[C@H]2C[C@@](C)(OC)[C@](O)(CC#N)[C@H](C)O2)[C@H](C)[C@@H](O[C@@H]2O[C@H](C)C[C@H](N(C)C(=O)N(C)c3ccccc3)[C@H]2O)[C@](C)(O)C[C@@H](C)CN[C@H](C)[C@@H](O)[C@]1(C)O [Example G-2, 1-((2S,3R,4S,6R)-2-(((2R,3S,4R,5R,8R,10R,11R,12S,13S,14R)-13-(((2R,4R,5S,6S)-5-(cyanomethyl)-5-hydroxy-4-methoxy-4,6-dimethyltetrahydro-2H-pyran-2-yl)oxy)-2-ethyl-3,4,10-trihydroxy-3,5,8,10,12,14-hexamethyl-15-oxo-1-oxa-6-azacyclopentadecan-11-yl)oxy)-3-hydroxy-6-methyltetrahydro-2H-pyran-4-yl)-1,3-dimethyl-3-phenylurea] | 80 | 70 | 100 | > 64 | – | –
CC[C@H]1OC(=O)[C@H](C)[C@@H](O[C@H]2C[C@@](C)(OC)[C@](O)(Cn3cncn3)[C@H](C)O2)[C@H](C)[C@@H](O[C@@H]2O[C@H](C)C[C@H](N(C)C(=O)N(C)c3ccccc3)[C@H]2O)[C@](C)(O)C[C@@H](C)CN[C@H](C)[C@@H](O)[C@]1(C)O [Example J-27, 1-((2S,3R,4S,6R)-2-(((2R,3S,4R,5R,8R,10R,11R,12S,13S,14R)-13-(((2R,4R,5S,6S)-5-((1H-1,2,4-triazol-1-yl)methyl)-5-hydroxy-4-methoxy-4,6-dimethyltetrahydro-2H-pyran-2-yl)oxy)-2-ethyl-3,4,10-trihydroxy-3,5,8,10,12,14-hexamethyl-15-oxo-1-oxa-6-azacyclopentadecan-11-yl)oxy)-3-hydroxy-6-methyltetrahydro-2H-pyran-4-yl)-1,3-dimethyl-3-phenylurea] | 48 | 124 | 250 | – | – | –
CC[C@H]1OC(=O)[C@H](C)[C@@H](O[C@H]2C[C@@](C)(OC)[C@](O)(Cn3ccnn3)[C@H](C)O2)[C@H](C)[C@@H](O[C@@H]2O[C@H](C)C[C@H](N(C)C(=O)N(C)c3ccccc3)[C@H]2O)[C@](C)(O)C[C@@H](C)CN[C@H](C)[C@@H](O)[C@]1(C)O [Example J-28, 1-((2S,3R,4S,6R)-2-(((2R,3S,4R,5R,8R,10R,11R,12S,13S,14R)-13-(((2R,4R,5S,6S)-5-((1H-1,2,3-triazol-1-yl)methyl)-5-hydroxy-4-methoxy-4,6-dimethyltetrahydro-2H-pyran-2-yl)oxy)-2-ethyl-3,4,10-trihydroxy-3,5,8,10,12,14-hexamethyl-15-oxo-1-oxa-6-azacyclopentadecan-11-yl)oxy)-3-hydroxy-6-methyltetrahydro-2H-pyran-4-yl)-1,3-dimethyl-3-phenylurea] | 57 | 152 | 100 | – | – | –
CC[C@H]1OC(=O)[C@H](C)[C@@H](O[C@H]2C[C@@](C)(OC)[C@](O)(Cn3cnnn3)[C@H](C)O2)[C@H](C)[C@@H](O[C@@H]2O[C@H](C)C[C@H](N(C)C(=O)N(C)c3ccccc3)[C@H]2O)[C@](C)(O)C[C@@H](C)CN[C@H](C)[C@@H](O)[C@]1(C)O [Example J-29, 1-((2S,3R,4S,6R)-2-(((2R,3S,4R,5R,8R,10R,11R,12S,13S,14R)-13-(((2R,4R,5S,6S)-5-((1H-tetrazol-1-yl)methyl)-5-hydroxy-4-methoxy-4,6-dimethyltetrahydro-2H-pyran-2-yl)oxy)-2-ethyl-3,4,10-trihydroxy-3,5,8,10,12,14-hexamethyl-15-oxo-1-oxa-6-azacyclopentadecan-11-yl)oxy)-3-hydroxy-6-methyltetrahydro-2H-pyran-4-yl)-1,3-dimethyl-3-phenylurea] | – | – | 40 | – | 19 | 56
CC[C@H]1OC(=O)[C@H](C)[C@@H](O[C@H]2C[C@@](C)(OC)[C@](O)(Cn3ncnn3)[C@H](C)O2)[C@H](C)[C@@H](O[C@@H]2O[C@H](C)C[C@H](N(C)C(=O)N(C)c3ccccc3)[C@H]2O)[C@](C)(O)C[C@@H](C)CN[C@H](C)[C@@H](O)[C@]1(C)O [Example J-30, 1-((2S,3R,4S,6R)-2-(((2R,3S,4R,5R,8R,10R,11R,12S,13S,14R)-13-(((2R,4R,5S,6S)-5-((2H-tetrazol-2-yl)methyl)-5-hydroxy-4-methoxy-4,6-dimethyltetrahydro-2H-pyran-2-yl)oxy)-2-ethyl-3,4,10-trihydroxy-3,5,8,10,12,14-hexamethyl-15-oxo-1-oxa-6-azacyclopentadecan-11-yl)oxy)-3-hydroxy-6-methyltetrahydro-2H-pyran-4-yl)-1,3-dimethyl-3-phenylurea] | – | – | 40 | – | 16 | 111

Continued by falling IC50 (TNF-α; [2]), values first:

IC50 (TNF-α; [2]) [µM] | IC50 (IL-6; [2]) [µM] | Structure (SMILES) | IL-1β OS of LPS (IL-1β) [µM] | MIC [1] [µg/mL] | IC50 (TNF-α) [µM] | IC50 (IL-6) [µM]
40 | 35 | CC[C@H]1OC(=O)[C@H](C)[C@@H](O[C@H]2C[C@@](C)(OC)[C@](O)(CCl)[C@H](C)O2)[C@H](C)[C@@H](O[C@@H]2O[C@H](C)C[C@H](N(C)C(=O)N(C)c3ccccc3)[C@H]2O)[C@](C)(O)C[C@@H](C)CN[C@H](C)[C@@H](O)[C@]1(C)O [Example E-2, 1-((2S,3R,4S,6R)-2-(((2R,3S,4R,5R,8R,10R,11R,12S,13S,14R)-13-(((2R,4R,5S,6S)-5-(chloromethyl)-5-hydroxy-4-methoxy-4,6-dimethyltetrahydro-2H-pyran-2-yl)oxy)-2-ethyl-3,4,10-trihydroxy-3,5,8,10,12,14-hexamethyl-15-oxo-1-oxa-6-azacyclopentadecan-11-yl)oxy)-3-hydroxy-6-methyltetrahydro-2H-pyran-4-yl)-1,3-dimethyl-3-phenylurea] | 40 | > 64 | – | –
11 | 30 | CC[C@H]1OC(=O)[C@H](C)[C@@H](O[C@H]2C[C@@](C)(OC)[C@](O)(CN=[N+]=[N-])[C@H](C)O2)[C@H](C)[C@@H](O[C@@H]2O[C@H](C)C[C@H](N(C)C(=O)N(C)c3ccccc3)[C@H]2O)[C@](C)(O)C[C@@H](C)CN[C@H](C)[C@@H](O)[C@]1(C)O [Example F-2, 1-((2S,3R,4S,6R)-2-(((2R,3S,4R,5R,8R,10R,11R,12S,13S,14R)-13-(((2R,4R,5S,6S)-5-(azidomethyl)-5-hydroxy-4-methoxy-4,6-dimethyltetrahydro-2H-pyran-2-yl)oxy)-2-ethyl-3,4,10-trihydroxy-3,5,8,10,12,14-hexamethyl-15-oxo-1-oxa-6-azacyclopentadecan-11-yl)oxy)-3-hydroxy-6-methyltetrahydro-2H-pyran-4-yl)-1,3-dimethyl-3-phenylurea] | 40 | > 64 | – | –
2 | 8 | CC[C@H]1OC(=O)[C@H](C)[C@@H](O[C@H]2C[C@@](C)(OC)[C@@H](O)[C@H](C)O2)[C@H](C)[C@@H](O[C@@H]2O[C@H](C)C[C@H](N(C)C(=O)Nc3ccc(C(F)(F)F)cc3)[C@H]2O)[C@](C)(O)C[C@@H](C)CN(C)[C@H](C)[C@@H](O)[C@]1(C)O [Example B-8, 1-((2S,3R,4S,6R)-2-(((2R,3S,4R,5R,8R,10R,11R,12S,13S,14R)-2-ethyl-3,4,10-trihydroxy-13-(((2R,4R,5S,6S)-5-hydroxy-4-methoxy-4,6-dimethyltetrahydro-2H-pyran-2-yl)oxy)-3,5,6,8,10,12,14-heptamethyl-15-oxo-1-oxa-6-azacyclopentadecan-11-yl)oxy)-3-hydroxy-6-methyltetrahydro-2H-pyran-4-yl)-1-methyl-3-(4-(trifluoromethyl)phenyl)urea] | 6 | > 64 | – | –
